“Also recorded” adds a separate entry of the source.
Assays:
Format in all cases: cell-based
HeLa cells [1] = assay: Staining of live (unfixed) HeLa cultures; selective staining of dead cells; conditions: 1 uL of 500 uM dye stock in 100 uL medium, five minutes, room temperature
Procedure: HeLa cells were seeded at a density of 2×10^4 cells in 100 uL culture medium per well in tissue culture treated, optical bottom, black 96-well plates. One day after seeding, 1 uL of 500 uM dye stock in DMSO was added directly to the culture medium (100 uL) and mixed by trituration. The cells were incubated at room temperature for five minutes. The culture medium containing dye was removed and replaced by 100 uL phosphate buffered saline. Cellular fluorescence was imaged using an the Cy5 filter set of an Olympus IX71 epifluorescence microscope and a Q-Imaging Retiga 2000R Fast 1394 mono camera (FIG. 5). […] Probes that can selectively detect dead cells are useful in cell viability assays, which are widely practiced in drug screening.

rat skeletal muscle = assay: Staining of tissue sections with Dye No. 7; conditions: acetone-fixed frozen sections of rat skeletal muscle; 10 uM, five minutes, room temperature
Procedure: Acetone-fixed frozen sections of rat skeletal muscle were purchased from Biochain Institute Inc. (Hayward, Calif.). Sections were rinsed in phosphate buffered saline and stained with 10 uM Dye No. 7 and 5 units/mL CF488A-phalloidin (Biotium Inc, Hayward, Calif.) for five minutes at room temperature. Sections were rinsed twice in phosphate buffered saline and mounted with EverBrite mounting medium (Biotium, Inc, Hayward, Calif.). Tissue fluorescence was imaged using the FITC and Cy5 filter sets of an Olympus IX71 epifluorescence microscope and a Q-Imaging Retiga 2000R Fast 1394 mono camera (FIG. 4).

HeLa cells [2] = assay: Staining of fixed and permeabilized cells; conditions: HeLa fixed with 4% paraformaldehyde, 0.5% Triton X-100; 3 μM DRAQ7 or 10 μM dye, 5 minutes, room temperature
Procedure: Adherent HeLa cells in 12-well plates were fixed with 4% paraformaldehyde for 15 minutes at room temperature. Cells were then permeabilized with 0.5% Triton X-100 for 10 minutes at room temperature. Three micromolar (3 μM, the manufacturer's recommended concentration) DRAQ7 or 10 μM Dye No. 7, 13, or 15 were added to the fixed and permeabilized cells in 1×PBS and incubated for 5 minutes at room temperature. The dye/PBS solution was removed and replaced with fresh 1×PBS. Fluorescence was observed using an epifluorescence microscope with the CY5 filter (FIG. 3).

HeLa cells [3] = assay: Normalizing or counting cell number; conditions: HeLa cells seeded at several densities, fixed, permeabilized, stained one hour at room temperature; LI-COR Odyssey
Procedure: HeLa cells were counted/normalized using Dye No. 1. HeLa cells were seeded in 96-well—lates at several densities per well (as indicated on the x-axis of FIG. 7). After 24 hours, cells were fixed, permeabilized, and stained with the indicated dyes for one hour at room temperature according to the protocol provided by the supplier of the DRAQ5/Sapphire700 system. Fluorescence was quantitated using a LI-COR Odyssey system. HeLa cells seeded at 25,000 cells were confluent at the time of the assay.

HeLa cells [4] = assay: Toxicity approximately 18 hours after staining (bright-field microscopy); conditions: live HeLa cells, 5 μM DRAQ5 or 20 μM Dye No. 1, 5 minutes at 37° C., then approximately 18 hours in fresh medium
Procedure: Dark spots are indicative of dead cells.
Live HeLa cells were treated with either 5 μM DRAQ5 or 20 μM Dye No. 1 in 1×PBS for 5 minutes at 37° C. The dye/PBS solution was removed and replaced with fresh Dulbecco/Vogt modified Eagle's minimal essential medium (DMEM) supplemented with bovine growth serum (BGS). The cells were incubated at 37° C. for approximately 18 hours, and observed under bright-field at 10× magnification (FIG. 2).

HeLa cells [5] = assay: Staining live cells with Dye No. 1 (fluorescence microscopy); conditions: live adherent HeLa cells; 5 μM DRAQ5 or 10 μM Dye No. 1 in 1× PBS, 37° C., 5 minutes; CY5 filter
Procedure: Live, adherent HeLa cells grown in 12-well plates were treated with either 5 μM DRAQ5 or 10 μM of Dye No. 1 in 1× phosphate buffered saline (PBS). Cells were incubated at 37° C. for 5 minutes. Fluorescence was observed using an epifluorescence microscope with the CY5 filter.

CN(C)CCNc1ccc(O)c2c1C(=O)c1c(O)ccc(NCCNC(=N)CCCCC(=N)NCCNc3ccc(O)c4c3C(=O)c3c(O)ccc(NCCN(C)C)c3C4=O)c1C2=O [Dye No. 7]
staining of live versus dead cells in live (unfixed) culture (HeLa cells [1]): selectively stained the nuclei of dead cells only
nuclear staining specificity in tissue (rat skeletal muscle): excellent nuclear specificity
nuclear staining specificity in fixed and permeabilized cells (HeLa cells [2]): much more specific in nuclear staining than Draq7; also recorded: stained cell nuclei specifically

O=C1c2c(O)ccc(NCCNC3=NCCN3)c2C(=O)c2c(O)ccc(NCCNC3=NCCN3)c21 [Dye No. 13]
nuclear staining specificity in fixed and permeabilized cells (HeLa cells [2]): much more specific in nuclear staining than Draq7

CN(C)CCNc1ccc(O)c2c1C(=O)c1c(O)ccc(NCCNC(=O)C3CCCN3)c1C2=O (centres unmarked) [Dye No. 1]
fluorescence versus number of cells stained (HeLa cells [3]): linear with the number of cells stained
staining of live versus dead cells in live (unfixed) culture (HeLa cells [1]): stained the nuclei of all cells
toxicity (cell death) after staining (HeLa cells [4]): caused fewer cell deaths than Draq5 even at a much higher concentration; also recorded: much less toxic than Draq5
nuclear staining of live cells (HeLa cells [5]): stained the nuclei of live cells with high specificity; also recorded: stained the nuclei of live cells specifically

CC(=N)NCCNc1ccc(O)c2c1C(=O)c1c(O)ccc(NCCNC(C)=N)c1C2=O [Dye No. 15]
nuclear staining specificity in fixed and permeabilized cells (HeLa cells [2]): much more specific in nuclear staining than Draq7; also recorded: stained cell nuclei specifically

CN(C)CCNc1ccc(O)c2c1C(=O)c1c(O)ccc(NCCN(C)C)c1C2=O [Draq5, reference compound]
toxicity (cell death) after staining (HeLa cells [4]): more cell death than that with Dye No. 1
nuclear staining of live cells (HeLa cells [5]): stained the nuclei of live cells with high specificity; also recorded: stained the nuclei of live cells specifically

Source: patent US9670363B2, “Substituted anthraquinone dyes for cellular stains and enzyme detection” (Biotium, Inc., priority 2011, dated 2017)
